{
  "source": "paper PMC4706877",
  "about": "“Antibacterial and Cytotoxic Activity of Compounds Isolated from Flourensia oolepis” (Evidence-based Complementary and Alternative Medicine : eCAM, 2015)",
  "key": {"[1]": {"test_system": "CCRF-CEM acute lymphoblastic leukemia cells", "experiment": "MTT cell proliferation assay", "type": "cell-based, human", "settings": "for IC50: CCRF-CEM, MTT, 72 h, read-out: IC50 values and 95% confidence limits (lower, upper)", "experimental": "(§1) The HEK293T non-tumor derived cell line and human isolated mononuclear cells (PBMC) were also tested. […] Cells were cultured at 37°C in a 5% CO2 humidified environment.\n(§2) To investigate the cytotoxic potential of the isolated compounds, the MTT colorimetric assay was performed. […] The compounds were evaluated at a final maximum concentration of 100 μM. After 72 hours, 20 μL of 5 mg/mL solution of MTT in sterile PBS was added to each well and further incubated for 4 h. Then, the supernatants were removed and replaced with 100 μL DMSO to solubilize the resulting purple formazan crystals produced from metabolically viable cells. Absorbance was measured with an iMark micro-plate reader (Bio-Rad, USA) at 595 nm. Two wells were used for each concentration of the products assayed and three independent experiments were performed. […] The percentage of cytotoxic activity of the assayed compounds was determined by the following formula: cytotoxicity (%) = [1 − (optical density of treated cells − optical density DMSO)/(optical density of ethanol control cells − optical density DMSO)] × 100.\n(§3) Data were analyzed by one-way analysis of variance (ANOVA) and means were compared using Bonferroni's comparison test, with p ≤ 0.05 considered as statistically significant."}, "[2]": {"test_system": "K562 chronic myeloid leukemia cells", "experiment": "MTT cell proliferation assay", "type": "cell-based, human", "settings": "for IC50: K562, MTT, 72 h, read-out: IC50 values and 95% confidence limits (lower, upper)", "experimental": "as §1, §2, §3"}, "[3]": {"test_system": "CEM/ADR5000 cells (MDR, P-glycoprotein overexpressing)", "experiment": "cells", "type": "cell-based, human", "settings": "for IC50: CEM/ADR5000, MTT, 72 h, read-out: IC50 values and 95% confidence limits (lower, upper)", "experimental": "as §1\n(§4) The latter concentration was then used for maintenance of the cells. Lucena 1 were continuously cultured in the presence of 60 nM DOX. Both cell lines were grown in drug-free medium 3-4 days before the experiments. Overexpression of P-glycoprotein (P-gp) in both MDR variants was verified by flow cytometry using FITC-labeled mouse anti-human P-gp (BD Pharmingen, USA). Cells were subcultured twice a week from frozen stocks and used before the 20th passage. All experiments were performed with cells in the logarithmic growth phase with cell viabilities over 90%, determined by trypan blue staining.\nas §2, §3"}, "[4]": {"test_system": "Lucena 1 cells (MDR, P-glycoprotein overexpressing)", "experiment": "cells", "type": "cell-based, human", "settings": "for IC50: Lucena 1, MTT, 72 h, read-out: IC50 values and 95% confidence limits (lower, upper)", "experimental": "as §1, §4, §2, §3"}, "CCRF-CEM cells [5]": {"test_system": "CCRF-CEM cells", "experiment": "Viable cell count by trypan blue dye exclusion", "type": "cell-based, human", "experimental": "(§5) To confirm the effect of compound 1 on the proliferation of CCRF-CEM and K562, cell suspensions (5 × 10^4 cells/well) were treated in culture medium with different concentrations of 1 (final volume of 200 μL) and incubated in triplicate for 24, 48, and 72 h. Two independent experiments were performed. The number of viable cells at the different time points was counted by the trypan blue dye exclusion method using a hemocytometer (Neubaur, USA)."}, "K562 cells [6]": {"test_system": "K562 cells", "experiment": "Viable cell count by trypan blue dye exclusion", "type": "cell-based, human", "experimental": "as §5"}, "CCRF-CEM cells [7]": {"test_system": "CCRF-CEM cells", "experiment": "Apoptosis by Annexin V/PI double staining", "type": "cell-based, human", "settings": "2 × IC50, 72 h", "experimental": "(§6) After incubation, cells were harvested, washed, and suspended in cold PBS. The proportion of cells undergoing apoptosis was examined by double staining using allophycocyanin (APC) conjugated Annexin-V (BD Pharmingen, USA) and propidium iodide (Sigma-Aldrich CO, USA). Over the following hour, the fluorescence of ten thousand cells, including that of control groups, was assayed and populations were analyzed with FlowJo software version 7.6.2 (Tree Star, Inc., OR, USA). Percentages of Annexin-V positive cells (PI− or PI+) indicate early or late apoptosis, respectively."}, "K562 cells [8]": {"test_system": "K562 cells", "experiment": "Apoptosis by Annexin V/PI double staining", "type": "cell-based, human", "settings": "2 × IC50, 72 h", "experimental": "as §6"}, "ALL cells": {"test_system": "ALL cells", "experiment": "MTT assay, summary", "type": "cell-based", "settings": "Homo sapiens, read-out: IC50, range", "source_text": "(§7) CCRF-CEM acute lymphoblastic leukemia (ALL) and K562 chronic myeloid leukemia (CML) cells and their MDR P-glycoprotein overexpressing variants, CEM/ADR5000 and Lucena 1, respectively, were a generous gift from Dr. T. Efferth (Institute of Pharmacy and Biochemistry, Johannes Gutenberg University, Mainz, Germany) and Dr. V. Rumjanek (Instituto de Bioquímica Médica Leopoldo de Meis, Universidade Federal do Rio de Janeiro, Rio de Janeiro, Brazil), respectively. The HEK293T non-tumor derived cell line and human isolated mononuclear cells (PBMC) were also tested. […]\n(§8) To investigate the cytotoxic potential of the isolated compounds, the MTT colorimetric assay was performed. […] The compounds were evaluated at a final maximum concentration of 100 μM. […] Absorbance was measured with an iMark micro-plate reader (Bio-Rad, USA) at 595 nm. […] The percentage of cytotoxic activity of the assayed compounds was determined by the following formula: cytotoxicity (%) = [1 − (optical density of treated cells − optical density DMSO)/(optical density of ethanol control cells − optical density DMSO)] × 100."}, "CML cells": {"test_system": "CML cells", "experiment": "MTT assay, summary", "type": "cell-based", "settings": "Homo sapiens, read-out: IC50, range", "source_text": "as §7, §8"}, "normal hepatocytes": {"test_system": "normal hepatocytes", "design": "method as in PMID 15223357", "settings": "trypan blue exclusion method; cited from earlier work"}},
  "note": "Like-named read-outs stand apart in the source and are kept apart here.",
  "data": [
    {"molecule": "O=C(/C=C/c1ccccc1)c1ccc(O)cc1O", "note": "[Compound 1, 2′,4′-dihydroxychalcone]", "values": [
      {"measurement": "IC50", "setting": "[1]", "result": 6.6, "unit": "µM"},
      {"measurement": "IC50", "setting": "[1]; Homo sapiens", "result": "< 10", "unit": "µM"},
      {"measurement": "selectivity index (SI)", "setting": "[1]; IC50 HEK293T / IC50 CCRF-CEM", "result": 10.1},
      {"measurement": "selectivity index (SI)", "setting": "[1]; IC50 PBMC / IC50 CCRF-CEM", "result": 12.5},
      {"measurement": "IC50", "setting": "[2]; Homo sapiens, K562, 72 h", "result": "< 30", "unit": "µM"},
      {"measurement": "selectivity index (SI)", "setting": "[2]; IC50 PBMC / IC50 K562", "result": 3.0},
      {"measurement": "IC50", "setting": "[2]", "result": 27.5, "unit": "µM"},
      {"measurement": "IC50", "setting": "[3]", "result": 9.9, "unit": "µM"},
      {"measurement": "resistant index (RI) = IC50 resistant cells/IC50 sensitive cells", "setting": "[3]; CEM/ADR5000 vs CCRF-CEM", "result": 1.5},
      {"measurement": "IC50", "setting": "[3]; Homo sapiens, ADR5000, 72 h", "result": "< 10", "unit": "µM"},
      {"measurement": "selectivity index (IC50 ratio)", "setting": "[3]; IC50 HEK293T / IC50 CEM/ADR5000", "result": 6.8},
      {"measurement": "selectivity index (IC50 ratio)", "setting": "[3]; IC50 PBMC / IC50 CEM/ADR5000", "result": 8.4},
      {"measurement": "IC50", "setting": "[4]; Homo sapiens, Lucena 1, 72 h", "result": "< 30", "unit": "µM"},
      {"measurement": "IC50", "setting": "[4]", "result": 30, "unit": "µM"},
      {"measurement": "resistant index (RI) = IC50 resistant cells/IC50 sensitive cells", "setting": "[4]; Lucena 1 vs K562", "result": 1.1},
      {"measurement": "time at which a significant difference (p < 0.05) in number of viable cells vs ethanol control was observed", "setting": "CCRF-CEM cells [5]; 2.6 μM", "result": 72, "unit": "h"},
      {"measurement": "time at which a significant difference (p < 0.05) in number of viable cells vs ethanol control was observed", "setting": "CCRF-CEM cells [5]; 5.2 μM", "result": 48, "unit": "h"},
      {"measurement": "time at which a significant decrease (p < 0.05) in number of viable cells vs ethanol control was observed", "setting": "K562 cells [6]; 20.8 μM", "result": 48, "unit": "h"},
      {"measurement": "time at which a significant decrease (p < 0.05) in number of viable cells vs ethanol control was observed", "setting": "K562 cells [6]; 41.6 μM", "result": 24, "unit": "h"},
      {"measurement": "early and late apoptotic cells", "setting": "CCRF-CEM cells [7]", "result": 26.7, "unit": "%"},
      {"measurement": "early and late apoptotic cells", "setting": "K562 cells [8]", "result": 68.7, "unit": "%"},
      {"measurement": "IC50", "setting": "ALL cells", "result": "6.6 to 9.9", "unit": "µM"},
      {"measurement": "IC50", "setting": "CML cells", "result": "27.5 to 30", "unit": "µM"},
      {"measurement": "IC50", "setting": "normal hepatocytes", "result": 34, "unit": "µg/mL"}
    ]}
  ]
}
